Results taken from US9885060B2, “Alkene production” (Evonik Degussa GmbH, priority 2015, dated 2018).

Test system: OleT
Test: Inhibitory effect of gluconic acid on OleT productivity
Format: biochemical
Details: 10 mM gluconic acid
Method: After 24 h reaction time, product concentrations of 1.16 mM (0.27 g L-1) 1-heptadecene and 1 mM (0.21 g L-1) 1-pentadecene were obtained but could not be further enhanced. […] Compared to a previously published whole cell reaction system, this FDH-driven system allows 6 times higher product titer and a 21 times higher volumetric productivity with 42.5 mg L-1 h-1 of α-olefin after 8 h reaction time vs: 98 mg L-1 in 48 h) (Table 2).

## O=C(O)[C@H](O)[C@@H](O)[C@H](O)[C@H](O)CO [gluconic acid]
  reduction of OleT productivity: 28%
